Patent US20240016831A1 (priority 2020, published 2024)

Type: physicochemical
Settings: pH 3

Row | SMILES | amounts of nitric oxide generated (cumulative NO evolved)
1 | OC[C@@H](O)[C@@H](O)[C@H](O)[C@H](O)CO [mannitol, D-mannitol] | markedly greater amounts of nitric oxide
2 | OC[C@@H](O)[C@@H](O)[C@H](O)[C@@H](O)CO [sorbitol] | markedly greater amounts of nitric oxide
